Consider nine compounds from PubChem BioAssay AID1963440 (Molecular Pharmacology Branch, DTP, NCI, 2024).

In the test the test system is NCI-H1417 complex spheroids, growth % test/control. Briefly: Anticancer human tumor NCI-H1417 cell line growth inhibition [Asc].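 On all read-outs here: spheroids exposed to compounds for 7 days.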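 On viability, T/C: 100% = DMSO vehicle control wells.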 The conditions noted are these: for viability, T/C: stronger effect = lower value. In outline: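 Tumor cells were grown as complex spheroids with human endothelial cells (HUVEC) and human mesenchymal stem cells as stroma. Agents were tested alone and in combination, in half-log steps down from the clinical Cmax, or from 10 microM where Cmax was unknown.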

Setting [1] is: curve of first compound, second compound 0.03 µM.
The mark [2] stands for this setting: curve of first compound, second compound 0.0949 µM.
The mark [3] stands for this setting: curve of first compound, second compound 0.3 µM.
The mark [4] stands for this setting: curve of first compound, second compound 0.949 µM.
[5] abbreviates: curve of first compound, second compound 3 µM.
The mark [6] stands for this setting: second compound 0.03 µM, first compound 0.00316 µM.
Where [7] appears, read: second compound 0.03 µM, first compound 0.01 µM.
[8] abbreviates: second compound 0.03 µM, first compound 0.0316 µM.
Setting [9] is: second compound 0.03 µM, first compound 0.1 µM.
Where [10] appears, read: second compound 0.03 µM, first compound 0.316 µM.
Where [11] appears, read: second compound 0.03 µM, first compound 1 µM.
Where [12] appears, read: second compound 0.0949 µM, first compound 0.00316 µM.
The mark [13] stands for this setting: second compound 0.0949 µM, first compound 0.01 µM.
Setting [14] is: second compound 0.0949 µM, first compound 0.0316 µM.
The mark [15] stands for this setting: second compound 0.0949 µM, first compound 0.1 µM.
Where [16] appears, read: second compound 0.0949 µM, first compound 0.316 µM.
The mark [17] stands for this setting: second compound 0.0949 µM, first compound 1 µM.
The mark [18] stands for this setting: second compound 0.3 µM, first compound 0.00316 µM.
Where [19] appears, read: second compound 0.3 µM, first compound 0.01 µM.
Setting [20] is: second compound 0.3 µM, first compound 0.0316 µM.
Where [21] appears, read: second compound 0.3 µM, first compound 0.1 µM.
The mark [22] stands for this setting: second compound 0.3 µM, first compound 0.316 µM.
Setting [23] is: second compound 0.3 µM, first compound 1 µM.
Where [24] appears, read: second compound 0.949 µM, first compound 0.00316 µM.
The mark [25] stands for this setting: second compound 0.949 µM, first compound 0.01 µM.
Setting [26] is: second compound 0.949 µM, first compound 0.0316 µM.
[27] abbreviates: second compound 0.949 µM, first compound 0.1 µM.
The mark [28] stands for this setting: second compound 0.949 µM, first compound 0.316 µM.
[29] abbreviates: second compound 0.949 µM, first compound 1 µM.
The mark [30] stands for this setting: second compound 3 µM, first compound 0.00316 µM.
Where [31] appears, read: second compound 3 µM, first compound 0.01 µM.
The mark [32] stands for this setting: second compound 3 µM, first compound 0.0316 µM.
Where [33] appears, read: second compound 3 µM, first compound 0.1 µM.
The mark [34] stands for this setting: second compound 3 µM, first compound 0.316 µM.
The mark [35] stands for this setting: second compound 3 µM, first compound 1 µM.

Values joined by “and” are separate entries in the source; they are usually repeats but may differ in a detail not shown here. Identical values can stand only once. A value given as a limit tells only on which side of the number the result lay.

A word on the viability, T/C: it is the ratio of treated to control. The term IC50 denotes the midpoint of a concentration-inhibition curve. For `Cn1ncnc1[C@H]1c2n[nH]c(=O)c3cc(F)cc(c23)N[C@@H]1c1ccc(F)cc1`, the viability, T/C (compound 0.000316 µM) is 101% and 113% and 97.4%; the viability, T/C (compound 0.001 µM) was 90.8% and 116% and 85%; the viability, T/C (compound 0.00316 µM) was 81.6% and 87.3% and 69.7%; the viability, T/C (compound 0.01 µM) was 70.8% and 75.9% and 67.2%; the viability, T/C (compound 0.0316 µM) was 56.4% and 77% and 57%; the viability, T/C (compound 0.1 µM) was 44% and 79.8% and 30.6%. Besides, the half-maximal inhibitory concentration (IC50) (curve of compound) was 58.2 nM and > 100 nM and 32.1 nM.
For the compound `COc1c(OCCCN2CCOCC2)ccc2c3n(c(=NC(=O)c4cnc(N)nc4)nc12)CCN3` + CCN1C(C(=O)NC23CCC(C(=O)O)(CC2)CC3)C(c2cccc(Cl)c2F)C2(C(=O)Nc3cc(Cl)ccc32)C12CCCCC2, the IC50 is > 1000 nM under setting [1]; > 1000 nM under setting [2]; > 1000 nM under setting [3]; 484 nM under setting [4]; 243 nM under setting [5]. Moreover, the viability, T/C was 107% under setting [6]; 114% under setting [7]; 95.8% under setting [8]; 100% under setting [9]; 96.7% under setting [10]; 59.2% under setting [11]. Further, the viability, T/C runs as follows: under setting [12], 94.6%; under setting [13], 96.7%; under setting [14], 87.2%; under setting [15], 90.3%; under setting [16], 80.5%; under setting [17], 58.7%. In addition, the viability, T/C by setting is: under setting [18], 93.2%; under setting [19], 93.6%; under setting [20], 81.2%; under setting [21], 74.8%; under setting [22], 57.6%; under setting [23], 51.5%. Also, the viability, T/C is, setting by setting: under setting [24], 89.6%; under setting [25], 92.2%; under setting [26], 81%; under setting [27], 64.9%; under setting [28], 55.8%; under setting [29], 43.6%. The viability, T/C under setting [30] was 92.4%; the viability, T/C under setting [31] was 89.8%; the viability, T/C under setting [32] is 86.7%; the viability, T/C under setting [33] was 63.1%; the viability, T/C under setting [34] is 47.7%; the viability, T/C under setting [35] was 36%.
On to `NC(=O)C(=Cn1cnc(-c2cc(C(F)(F)F)cc(C(F)(F)F)c2)n1)c1cncnc1`, for which the viability, T/C is 98.9% and 102% and 99.9% (compound 0.000949 µM); 99.9% and 106% and 107% (compound 0.003 µM); 89.7% and 96.8% and 104% (compound 0.00949 µM); 93% and 97.1% and 94.3% (compound 0.03 µM); 79.8% and 61.8% and 85.1% (compound 0.0949 µM); 25.3% and 22.2% and 44.6% (compound 0.3 µM). The IC50 (curve of compound) was 178 nM and 134 nM and 259 nM.
For `O=C(c1ccc(F)c(F)c1Nc1ccc(I)cc1F)N1CC(O)([C@@H]2CCCCN2)C1`, the viability, T/C by setting is: (compound 0.00316 µM) 89.8% and 105% and 96.8%; (compound 0.01 µM) 99.2% and 107% and 97.3%; (compound 0.0316 µM) 84.4% and 103% and 97.9%; (compound 0.1 µM) 89% and 98.1% and 116%; (compound 0.316 µM) 88.8% and 94.5% and 97.2%; (compound 1 µM) 65.3% and 83.7% and 98.2%. The IC50 (curve of compound) was > 1000 nM.
Consider `CNC(C)C(=O)NC1CN(S(=O)(=O)c2cccc(S(=O)(=O)N3CCC4CCC(C(=O)NC(c5ccccc5)c5ccccc5)N4C(=O)C(NC(=O)C(C)NC)C3)c2)CCC2CCC(C(=O)NC(c3ccccc3)c3ccccc3)N2C1=O` (stereo not drawn) + CCN1C(C(=O)NC23CCC(C(=O)O)(CC2)CC3)C(c2cccc(Cl)c2F)C2(C(=O)Nc3cc(Cl)ccc32)C12CCCCC2, for which the IC50 is > 1000 nM under setting [1]; > 1000 nM under setting [2]; > 1000 nM under setting [3]; > 1000 nM under setting [4]; > 1000 nM under setting [5]. Besides, the viability, T/C was 121% under setting [6]; 107% under setting [7]; 112% under setting [8]; 111% under setting [9]; 99.8% under setting [10]; 109% under setting [11]. The viability, T/C under setting [12] was 101%; the viability, T/C under setting [13] was 94.8%; the viability, T/C under setting [14] was 108%; the viability, T/C under setting [15] was 91.5%; the viability, T/C under setting [16] was 101%; the viability, T/C under setting [17] is 115%. Further, the viability, T/C by setting is: under setting [18], 116%; under setting [19], 118%; under setting [20], 94.6%; under setting [21], 104%; under setting [22], 105%; under setting [23], 100%. Also, the viability, T/C runs as follows: under setting [24], 97%; under setting [25], 98.9%; under setting [26], 93.4%; under setting [27], 97.5%; under setting [28], 87.1%; under setting [29], 91.1%. The viability, T/C under setting [30] is 97.2%; the viability, T/C under setting [31] is 98.8%; the viability, T/C under setting [32] was 91.8%; the viability, T/C under setting [33] is 90.8%; the viability, T/C under setting [34] was 84.2%; the viability, T/C under setting [35] was 99.4%.
For `CCN1CCN(Cc2ccc(Nc3ncc(F)c(-c4cc(F)c5nc(C)n(C(C)C)c5c4)n3)nc2)CC1` + CCN1C(C(=O)NC23CCC(C(=O)O)(CC2)CC3)C(c2cccc(Cl)c2F)C2(C(=O)Nc3cc(Cl)ccc32)C12CCCCC2, the IC50 reads like this: under setting [1], > 1000 nM; under setting [2], > 1000 nM; under setting [3], > 1000 nM; under setting [4], > 1000 nM; under setting [5], > 1000 nM. Moreover, the viability, T/C is, setting by setting: under setting [6], 108%; under setting [7], 110%; under setting [8], 93.6%; under setting [9], 93.8%; under setting [10], 97.8%; under setting [11], 83%. Besides, the viability, T/C under setting [12] is 103%; the viability, T/C under setting [13] is 104%; the viability, T/C under setting [14] is 92.7%; the viability, T/C under setting [15] was 98.2%; the viability, T/C under setting [16] is 94%; the viability, T/C under setting [17] was 91.5%. Also, the viability, T/C runs as follows: under setting [18], 103%; under setting [19], 100%; under setting [20], 110%; under setting [21], 102%; under setting [22], 95.7%; under setting [23], 81.2%. The viability, T/C is 87.2% under setting [24]; 93.1% under setting [25]; 88.2% under setting [26]; 91.1% under setting [27]; 88.8% under setting [28]; 78.4% under setting [29]. The viability, T/C under setting [30] is 99.5%; the viability, T/C under setting [31] was 91.1%; the viability, T/C under setting [32] is 98.8%; the viability, T/C under setting [33] is 91.4%; the viability, T/C under setting [34] is 83.8%; the viability, T/C under setting [35] is 75.1%.
Regarding `Cc1nc(N2CCC3(CC2)COC(C)C3N)c(CO)nc1Sc1ccnc(N)c1Cl` (stereo not drawn), the viability, T/C reads like this: (compound 0.00949 µM) 83.4% and 92.6% and 92.5%; (compound 0.03 µM) 82.8% and 102% and 101%; (compound 0.0949 µM) 104% and 101% and 77.7%; (compound 0.3 µM) 112% and 84.2% and 93%; (compound 0.949 µM) 101% and 84% and 83.2%; (compound 3 µM) 76.5% and 70.5% and 76.4%. Moreover, the IC50 (curve of compound) was > 3000 nM.
Regarding `CCN1C(C(=O)NC23CCC(C(=O)O)(CC2)CC3)C(c2cccc(Cl)c2F)C2(C(=O)Nc3cc(Cl)ccc32)C12CCCCC2` (stereo not drawn), the viability, T/C by setting is: (compound 0.00949 µM) 102% and 109%; (compound 0.03 µM) 102% [middle of 15 runs]; (compound 0.0949 µM) 101% [middle of 15 runs]; (compound 0.3 µM) 97.9% [middle of 15 runs]; (compound 3 µM) 93.4% [middle of 15 runs]. The IC50 is, setting by setting: (compound alone, run of 10/11/2022) > 3000 nM; (curve of compound) > 3000 nM.
As for `CNC(C)C(=O)NC1CN(S(=O)(=O)c2cccc(S(=O)(=O)N3CCC4CCC(C(=O)NC(c5ccccc5)c5ccccc5)N4C(=O)C(NC(=O)C(C)NC)C3)c2)CCC2CCC(C(=O)NC(c3ccccc3)c3ccccc3)N2C1=O` (stereo not drawn), the viability, T/C is 95% and 113% and 107% (compound 0.00316 µM); 105% [middle of 14 runs] (compound 0.01 µM); 97.8% [middle of 13 runs] (compound 0.0316 µM); 96.8% [middle of 14 runs] (compound 0.316 µM); 97.5% [middle of 14 runs] (compound 1 µM). The half-maximal inhibitory concentration (IC50) is, setting by setting: (compound alone, run of 10/24/2022) > 1000 nM; (compound alone, run of 11/15/2022) > 1000 nM; (curve of compound) > 1000 nM.
